Experimental data published in patent publication US20110294876A1, “CYCLOHEXYL CARBAMATE COMPOUNDS AS ANTI-AGEING ACTIVES” (SYMRISE AG, priority 2010, published 2011).

Experiments:
isolated 20S proteasome = isolated 20S proteasome (Homo sapiens, UniProt P28074); test: Proteasome activity using isolated proteasome (chymotrypsin-like activity, MCA liberation); type: biochemical; design: unit of the concentration uncertain; conditions: relative to DMSO control (0 (unit uncertain) = 100%), mean of 3 independent tests
Source text: The method used herein to investigate the proteasome stimulating activity of a substance is based on the measurement of the 20S proteasome core activity. To detect this activity, the isolated 20S proteasome reacts with an oligopeptide, which is bound to a fluorochrome. With its chymotrypsin-like proteolytic activity, the proteasome degrades the oligopeptide and liberates the fluorochrome. For this assay 4-methyl-coumaryl-amide (MCA) was used as fluorochrome. Liberation of MCA correlates linearly with the proteasome activity. MCA was detected using an excitation of 360 nm and an emission of 460 nm.
For interpretation, the measured proteasome activities/intensities of fluorescence were compared with pure MCA standards at distinct concentrations.
Two different controls were used for each assay. One “ordinary” control (C) which consisted of isolated proteasome alone, and a DMSO-control (DC). DC was necessary because all substances were diluted in DMSO. Proteasome activity was calculated relative to DMSO control (0 mM).

[1] = test system: proteasome in HaCaT cell lysate; test: Proteasome activity using cell lysates of HaCaT cells (MCA liberation); type: biochemical, human; design: unit of the concentration uncertain; conditions: HaCaT cellular extracts, relative to DMSO control (0 (unit uncertain) = 100%), mean of 3 independent tests
Protocol: To determine proteasome activity in cell lysate, human keratinocyte cell lines (HaCaT cells) were seeded out in Petri-dishes (area: 22.1 cm^2) and harvested when they reached confluence. Isolation of the pure cell lysate included cell washing, incubation and homogenization in lysis buffer (250 mM sucrose, 25 mM HEPES (4-(2-hydroxyethyl)-1-piperazineethanesulfonic acid), 10 mM MgCl2*6H2O, 1.3 mM EDTA) and final cell lysis with liquid nitrogen. Determination of proteasome activity is based on the liberation of MCA and the corresponding fluorescence like described above in example 3.1. Proteasome activity was calculated relative to DMSO control (0 mM).

fish = conditions: cited from earlier work
yeast = conditions: cited from earlier work

Relative proteasome activity (isolated 20S proteasome; 5 (unit uncertain)) [%]	Relative proteasome activity (isolated 20S proteasome; 10 (unit uncertain)) [%]	Relative proteasome activity (isolated 20S proteasome; 20 (unit uncertain)) [%]	Compound	Relative proteasome activity ([1]; 5 (unit uncertain)) [%]	Relative proteasome activity ([1]; 10 (unit uncertain)) [%]	Relative proteasome activity ([1]; 20 (unit uncertain)) [%]	Extension of lifespan (fish) [%]	Extension of lifespan (yeast) [%]
125	210	250	CC(C)NC(=O)O[C@@H]1C[C@H](C)CC[C@H]1C(C)C [BIO1272, Isopropyl-carbamic acid (1R,2S,5R)-2-isopropyl-5-methylcyclohexyl ester]	105	120	140	–	–
–	–	–	Oc1ccc(C=Cc2cc(O)cc(O)c2)cc1 [Resveratrol]	–	–	–	60	70
